In US5703205A, “Laminin a chain polypeptides from the amino terminal golbular domain” (Regents of the University of Minnesota, priority 1993, dated 1997):

Tests used:
Assay type in all cases: cell-based
[1] = test system: HT-1080 human fibrosarcoma cells; assay: Cell spreading assay on coated surfaces; conditions: for Cells Spread (%) / Surface Area Occupied by a Cell: wells coated with 300 μl at 100 μg/ml, 2 1/2 hour incubation
Method: Spreading of the adherent cells was evaluated by performing adhesion assays similar to those described above. Twenty-four well tissue culture plates (Becton Dickinson and Co., Lincoln Park, N.J.) were coated with 300 μl of laminin, synthetic peptides, or BSA at 100 μg/ml, then blocked with 2 mg/ml BSA in PBS. Three hundred microliters of a cell suspension at 5×10^4 cells/ml was added to each well, and after a 21/2 hour incubation, nonadherent cells were aspirated out of the wells. Adherent cells were fixed with 2% glutaraldehyde in PBS at 23° C. for one hour. The glutaraldehyde was then removed and the cells were stained by two different techniques. For photographic purposes, the cells were stained with Diff-Quik Solution I (American Scientific Products, McGaw Park, Ill.) for 10 minutes at 23° C. Solution I was removed, then Diff-Quik Solution II was added and the cells were stained for another 10 minutes at 23° C. Wells were washed with PBS, then representative cells were photographed with a Nikon DIAPHOT inverted phase microscope using Panatomic X Film ASA32 (Eastman Kodak, Rochester, N.Y.). Adherent cells to be quantitated for spreading were stained overnight at 23° C. with 500 μl of a solution containing 0.12% (w/v) Coomassie Brilliant Blue R (Sigma Chemical Co.), 5% (v/v) acetic acid, and 50% (v/v) ethanol. Wells were washed three times with 500 μl of PBS and cell spreading was then quantitated by measuring the average surface area occupied by a cell using an Opti-Max Image Analyzer. Thirty cells were measured per well; each experiment was done in quadruplicate and repeated three times. Cells spread the best on peptide R17 and R18 and occupy an area of ~30% of that seen for cells on laminin-coated surfaces. On surfaces coated with peptides R19, R20, and R32, less cell spreading was observed; cells occupied an area ~20% of that seen on intact laminin. Cell spreading on ovalbumin (negative control) was less than 10% of that seen on laminin but the cells were barely adherent under these last conditions.

[2] = test system: HT-1080 human fibrosarcoma cells; assay: Direct adhesion of radiolabeled cells to peptide or protein coated microtiter wells; conditions: increasing concentrations adsorbed, up to 5 μg/well; 120 minutes
Method: FIG. 3 reports results in microtiter wells adsorbed with increasing concentrations of HPLC-purified peptides R17 (.smallcircle.) R18 (.quadrature.), or R19 (Δ), R20 (.circle-solid.), R32 (.box-solid.), laminin (.tangle-solidup.), or ovalbumin (.diamond.) and radiolabeled HT-1080 human fibrosarcoma cells that were allowed to adhere for 2 hours after being released from flasks with EDTA/trypsin. Each value represents the mean of four separate determinations, and the SEM was less than 10% in each case.
The direct adhesion of cells to protein or peptide coated surfaces was performed as described in Skubitz et al., Exp. Cell Res., 173, 349-360 (1987) and Charonis et al., supra (1988). Briefly, radiolabeled cells were added to 96-well microtiter plates coated with various concentrations of synthetic peptides, laminin, or BSA (0.02 μg/well-50 μg/well from 50 μl solutions) for various lengths of time. After the incubation period, loosely or nonadherent cells were removed by washing the wells three times. Adherent cells weresolubilized and quantitated in a scintillation counter. […] The solubilized cells were then quantitated using a liquid scintillation counter.
In this case, increasing concentrations of the five synthetic peptides were adsorbed to microtiter wells. Radiolabeled HT-1080 human fibrosarcoma cells were incubated in the wells for 120 minutes and the adhesion of cells was quantitated. […]

murine melanoma (M4) = assay: Direct cell adhesion to coated surfaces (Table II); conditions: wells coated with 5 μg, 2 hours, % of total cells added
Excerpt: (§1) The human fibrosarcoma HT-1080 cell line was obtained from the ATCC. The murine melanoma K-1735-C10 (low metastatic) and K-1735-M4 (high metastatic) cell lines, murine UV-2237-MM fibrosarcoma cell line, human renal carcinoma SN12 PM-6 (high metastatic) cell line, and human colon carcinoma KM12 C (low metastatic) and KM12 SM (high metastatic) cell lines were originally provided by Dr. I. J. Fidler (M.D., Anderson Hospital, University of Texas Health Sciences Center, Houston, Tex.). The MM fibrosarcoma cell line was maintained in DME (GIBCO Laboratories, Grand Island, N.Y.) containing 10% FBS, the murine melanomas were maintained in DMEM containing 10% calf serum, the human fibrosarcoma cells were maintained in EMEM containing 10% heat inactivated FBS, and the human renal and colon carcinoma cells were grown in EMEM containing 10% FBS, vitamins, and 1 mM sodium pyruvate. Cells were passaged for 4 to 5 weeks and then replaced from frozen stocks of early passage cells to minimize phenotypic drift. Cells were maintained at 37° C. in a humidified incubator containing 5% CO2.
(§2) The direct adhesion of cells to protein or peptide coated surfaces was performed as described in Skubitz et al., Exp. Cell Res., 173, 349-360 (1987) and Charonis et al., supra (1988). Briefly, radiolabeled cells were added to 96-well microtiter plates coated with various concentrations of synthetic peptides, laminin, or BSA (0.02 μg/well-50 μg/well from 50 μl solutions) for various lengths of time. After the incubation period, loosely or nonadherent cells were removed by washing the wells three times. Adherent cells weresolubilized and quantitated in a scintillation counter. More specifically, cultures of cells which were 60-80% confluent were metabolically labeled for 24 hours with the addition of 3 μCi/ml of ^3 H-td (tritiated thymidine). On the day of the assay, the cells were harvested by trypsinization, the trypsin was inhibited by the addition of serum, and the cells were washed free of this mixture and resuspended in DMEM buffered with HEPES at pH 7.2. The adhesion medium also contained 2 mg/ml BSA. The cells were adjusted to a concentration of 3-4×10^4/ ml, and 100 μl of this cell suspension was added to the wells. The assay mixture was then incubated at 37° C. for 120 minutes. At the end of the incubation, the wells were washed with warm DMEM/Hepes containing 2 mg/ml BSA, and the adherent population was solubilized with 0.5N NaOH contained 1% SDS. The solubilized cells were then quantitated using a liquid scintillation counter.
(§3) Microtiter wells were adsorbed with peptide R18, laminin, or BSA and a variety of tumor cell lines were tested for the ability to adhere to the ligands. The six different tumor cell lines selected for this study were of murine or human origin and, in most cases, of either high or low metastatic capacity. As reported in Table II, peptide R18 was also capable of promoting the adhesion of all six cell lines.
(§4) *Microtiter wells were coated with 5 μg of the peptide or proteins and […]

murine fibrosarcoma (MM) = assay: Direct cell adhesion to coated surfaces (Table II); conditions: wells coated with 5 μg, 2 hours, % of total cells added
Excerpt: as §1, §2, §3, §4

murine melanoma (C10) = assay: Direct cell adhesion to coated surfaces (Table II); conditions: wells coated with 5 μg, 2 hours, % of total cells added
Excerpt: as §1, §2, §3, §4

[3] = test system: human colon carcinoma (KI2SM); assay: Direct cell adhesion to coated surfaces (Table II); conditions: wells coated with 5 μg, 2 hours, % of total cells added
Excerpt: as §1, §2, §3, §4

[4] = test system: human colon carcinoma (K12C); assay: Direct cell adhesion to coated surfaces (Table II); conditions: wells coated with 5 μg, 2 hours, % of total cells added
Excerpt: as §1, §2, §3, §4

[5] = test system: human renal carcinoma (SN12 PM6); assay: Direct cell adhesion to coated surfaces (Table II); conditions: wells coated with 5 μg, 2 hours, % of total cells added
Excerpt: as §1, §2, §3, §4

Substance	area occupied by cells relative to that on laminin-coated surfaces ([1]; HT-1080 cell spreading, relative to intact laminin)	Cells Spread (%) [1] [%]	Surface Area Occupied by a Cell [1] [um^2]	cell adhesion to coated wells (in words) [2]	Cell Adhesion (%) to Coated Surfaces (murine melanoma (M4)) [%]	Cell Adhesion (%) to Coated Surfaces (murine fibrosarcoma (MM)) [%]	Cell Adhesion (%) to Coated Surfaces (murine melanoma (C10)) [%]	Cell Adhesion (%) to Coated Surfaces [3] [%]	Cell Adhesion (%) to Coated Surfaces [4] [%]	Cell Adhesion (%) to Coated Surfaces [5] [%]
Ovalbumin: negative control protein	less than 10%	0	71 ± 41	no cell adhesion was observed						
Laminin		95	611 ± 79		50	43	80	36	25	40
